Source: patent publication EP0038629A1, “Virazole derivatives, process for their preparation and use as antiviral agents” (priority 1980, dated 1981)
Read-outs that look alike come from different tables or passages of the source. Marks after values point to notes of the source that are not given here.

Tested on: mouse adapted strain of the A2/HK/l/68 virus
Conditions: 10^-4 mole/kg doses twice daily for 3 days; for Weight Change Day 0 -Day 3: dosing period, indication of toxicity

For “1-[β-D-(5'-succinyl-2',3'-carbonyl)ribofuranosyl]-3-carbamoyl-1,2,4-triazole amantadine salt [Compound 6]”, the “Day 8 Means Body Wt.” value (Expt. 1, subcutaneous) was 22.4 gm, the “Day 8 Means Lung WT./ Body Wt. Ratio x 100” value (Expt. 1, subcutaneous) was 1.25 and the “Day 8 Means Lung Wt.” value (Expt. 1, subcutaneous) was 273 mg. For the same molecule, the “Weight Change Day 3 -Day 8” value (Expt. 1, subcutaneous) was “+0.9”, the “Weight Change Day 0 -Day 3” value (Expt. 1, subcutaneous) was “+2.4” and the “Day 8 Means Body Wt.” value (Expt. 2, subcutaneous) was 21.2 gm. The “Day 8 Means Lung WT./ Body Wt. Ratio x 100” value (Expt. 2, subcutaneous) was 1.30**, the “Day 8 Means Lung Wt.” value (Expt. 2, subcutaneous) was 266 mg and the “Weight Change Day 3 -Day 8” value (Expt. 2, subcutaneous) was “+0.4”. For the same molecule, the “Weight Change Day 0 -Day 3” value (Expt. 2, subcutaneous) was “+2.1”, the “Day 8 Means Body Wt.” value (Expt. 3, oral) was 22.5 gm and the “Day 8 Means Lung WT./ Body Wt. Ratio x 100” value (Expt. 3, oral) was 1.25**. For the same molecule, the “Day 8 Means Lung Wt.” value (Expt. 3, oral) was 275 mg, the “Weight Change Day 3 -Day 8” value (Expt. 3, oral) was “+0.7” and the “Weight Change Day 0 -Day 3” value (Expt. 3, oral) was “+2.6”.
With NC(=O)c1ncn([C@@H]2O[C@H](CO)[C@@H](O)[C@H]2O)n1 [Compound 1, 1-β-D-ribofuranosyl-3-carbamoyl-1,2,4-triazole, reference compound] the “Day 8 Means Body Wt.” value (Expt. 1, subcutaneous) was 20.7 gm, the “Day 8 Means Lung WT./ Body Wt. Ratio x 100” value (Expt. 1, subcutaneous) was 1.16 and the “Day 8 Means Lung Wt.” value (Expt. 1, subcutaneous) was 238 mg. The “Weight Change Day 3 -Day 8” value (Expt. 1, subcutaneous) was “+0.8”, the “Weight Change Day 0 -Day 3” value (Expt. 1, subcutaneous) was “+0.7*” and the “Day 8 Means Body Wt.” value (Expt. 2, subcutaneous) was 20.5 gm. The “Day 8 Means Lung WT./ Body Wt. Ratio x 100” value (Expt. 2, subcutaneous) was 1.36, the “Day 8 Means Lung Wt.” value (Expt. 2, subcutaneous) was 291 mg and the “Weight Change Day 3 -Day 8” value (Expt. 2, subcutaneous) was “+1.8”. For the same molecule, the “Weight Change Day 0 -Day 3” value (Expt. 2, subcutaneous) was “+0.2*”, the “Day 8 Means Body Wt.” value (Expt. 3, oral) was 19.1 gm and the “Day 8 Means Lung WT./ Body Wt. Ratio x 100” value (Expt. 3, oral) was 1.40**. The “Day 8 Means Lung Wt.” value (Expt. 3, oral) was 285 mg, the “Weight Change Day 3 -Day 8” value (Expt. 3, oral) was -0.8 and the “Weight Change Day 0 -Day 3” value (Expt. 3, oral) was “+0.9*”.
